In patent US20100178271A1, “Combination Therapy” (GENZYME CORPORATION, priority 2006, published 2010):

Key:
[1] = system: pre-B-ALL cells; settings: in vitro, cited from earlier work
[2] = system: collagen-induced arthritis; settings: mice; cited from earlier work
[3] = system: hematopoietic stem and progenitor cells (HSPC), CFU-GM; experiment: CFU-GM mobilization into peripheral blood, BALB/c mice
[4] = system: hematopoietic stem and progenitor cells (HSPC), CFU-GM; experiment: CFU-GM mobilization into peripheral blood, FancC −/− mice; assay type: in vivo
[5] = system: hematopoietic stem and progenitor cells (HSPC), CFU-GM; experiment: CFU-GM mobilization into peripheral blood, +/+ C57B1 (wild type) mice; assay type: in vivo; settings: +/+ C57B1 controls; G-CSF alone regimen

c1cc(CN2CCCNCCNCCCNCC2)ccc1CN1CCCNCCNCCCNCC1 [AMD3100, 1,1′-[1,4-phenylene-bis(methylene)]-bis-1,4,8,11-tetraazacyclotetradecane]
effect on cytotoxic and antiproliferative effects of vincristine and dexamethasone ([1]; pre-B-ALL cells): enhanced | SDF-1 induced chemotaxis of pre-B-ALL cells into bone marrow stroma layers [1]: blocked | effect in collagen-induced arthritis models [2]: protective effects | CFU-GM/mL blood mobilized ([3]; blood harvested 60 min after AMD (5 mg/kg SC), alone or on day 5 after G-CSF regimen): 991±121 CFU-GM/mL blood

GROβ: recombinant human GROβ, chemokine, CXCR2 agonist
CFU-GM/mL blood mobilized ([3]; blood harvested 15 min after GROβ (2.5 mg/kg SC) or GROβ+AMD, alone or on day 5 after G-CSF regimen): 2562±396 CFU-GM/mL blood | CFU-GM mobilization in FancC −/− mice relative to +/+ controls ([4]; FancC −/− vs +/+ C57B1): lower in FancC −/− mice

B1: G-CSF: recombinant human Granulocyte-Colony Stimulating Factor (protein, UniProt P09919 31-207, looked up)
Granulocyte …: TPLGPASSLPQSFLLKCLEQVRKIQGDGAALQEKLVSECATYKLCHPEELVLLGHSLGIPWAPLSSCPSQALQLAGCLSQLHSGLFLYQGLLQALEGISPELGPTLDTLQLDVADFATTIWQQMEELGMAPALQPTQGAMPAFASAFQRRAGGVLVASHLQSFLEVSYRVLRHLAQP
CFU-GM mobilized [5]: 1451±80 | CFU-GM/mL blood mobilized ([3]; G-CSF alone 100 ug/kg/day, bid, SC×4 days): 4362±996 CFU-GM/mL blood | CFU-GM mobilized ([4]; FancC −/− mice, G-CSF alone regimen): 858±21 | mobilization lower in FancC −/− mice compared to +/+ controls ([4]; FancC −/− vs +/+ C57B1): 45%
